“Also recorded” adds a separate entry of the source.
Tests used:
[1] = tested on: mechanical allodynia of the neuropathic (“Cuff”) mice; details: as previously published (Benbouzid et al. 2008); cited from earlier work
[2] = tested on: mechanical allodynia of the neuropathic (“Cuff”) mice; assay: Sciatic nerve cuff murine model of neuropathic pain, von Frey filament test in neuropathic (Cuff) mice; assay type: in vivo, C57BL/6J mice; details: for Mechanical allodynia of Cuff mice after the first (acute) injection: mice neuropathic for 2 weeks; for Allodynia in neuropathic (Cuff) animals after chronic treatment, recapitulation (FIG. 25): chronic treatment (14-21 days), doses and modes as in examples 7, 9 to 14 and 20 (formoterol 0.5 mg/kg, terbutalin 5 mg/kg); for Effect on neuropathic allodynia acutely after the first injection, summary statement: first injection of the agonist, doses as in examples 7, 9, 11 and 15
Procedure: (§1) The experiments were carried out on adult male mice. The pharmacological experiments were carried out using C57BL/6J mice (3-to-6 weeks old on their arrival, Charles River, L'Arbresle, France).
All the experiments began with mice that were 6-to-9 weeks old. […] For all the other experiments, the mice were combined at four to five per cage and kept under alternating 12-hour day/night (light at 6 am) with food and water ad libitum.
(§2) The model is obtained by placing a polyethylene cuff around the main branch of the right sciatic nerve of each mouse. Before any surgical procedure, the mice were assigned to the various experimental groups in such a way that the baseline mechanical nociception threshold and the weight are equivalent between the various groups. The surgical procedure was carried out under ketamin-xylazin anesthesia (ketamin: 17 mg/ml, xylazin 2.5 mg/ml, intraperitoneal injection in a proportion of 4 ml/kg) (limited liability company Centravet, Taden, France). The common branch of the sciatic nerve was exposed and a section 2 mm long of a hollow PE-20 polyethylene tube (“Harvard Apparatus”, Les Ulis, France) was placed around said branch (“Cuff” group). […] Control mice were operated on according to the same procedure, but without placing the cuff (“Sham” group). The experimental groups are made up of at least 4 mice for each control (“Sham”) group and at least 5 mice for each neuropathic (“Cuff”) group.
(§3) The mice are placed in transparent Plexiglas (registered trademark) boxes (7 cm×9 cm×7 cm) placed on a raised grid. Before the test, the mice are allowed to become accustomed to this device for 15 minutes. During the test, the von Frey filaments are applied to the plantar surface of each back foot according to ascending forces (from 0.16 g up to a foot withdrawal response, or up to a maximum of 10 g). Each filament is tested 5 times per foot and the threshold is defined by the presence of 3 or more withdrawals observed over the 5 tests. Before the surgery as described above, the animals were pretested in order to establish their baseline nociceptive response. During the chronic treatment experiments and those of repeated injection of antagonists, the tests are carried out in the mornings before the first injection of the day. During the acute agonist injection experiments, the tests are carried out after the first injection according to the time course as presented on the graphs.
The surgery for installing the cuff corresponds to day 0.
(§4) For all the treatments carried out by injection, said injections were given intraperitoneally in a volume of 50 microL per 10 mg of body weight.

[3] = tested on: nociceptive sensitivity of the mice of the control (“Sham”) group; assay: von Frey filament test in control (Sham) mice operated without cuff; assay type: in vivo, C57BL/6J mice; details: for Sensitivity of control (Sham) animals under chronic treatment, recapitulation (FIG. 26): chronic treatment (14-21 days), doses and modes as in examples 2, 7, 9 to 14 and 20 (formoterol 0.5 mg/kg, terbutalin 5 mg/kg); for Nociceptive sensitivity of control (Sham) mice under chronic treatment: repeated injections, doses and modes as for the Cuff mice of the same example; for Sensitivity of control (Sham) animals, dose-response recapitulation (FIG. 21): terbutalin 0.125, 0.25, 0.5 or 5 mg/kg, nortriptylin 5 mg/kg, twice a day, 3 weeks; for Control (Sham) mice after the first administration: intraperitoneal, first injection
Procedure: as §1, §2, §3, §4

[4] = tested on: mechanical allodynia of the neuropathic (“Cuff”) mice; assay: Cotreatment with adrenoreceptor antagonists in Cuff mice relieved by chronic nortriptylin or beta-agonist treatment, von Frey test; assay type: in vivo, C57BL/6J mice; details: for Effect of coadministered beta2-adrenoreceptor antagonist ICI 118,551 on the allodynia of agonist-treated Cuff mice: ICI 118,551 2 mg/kg intraperitoneal, after 3 weeks of agonist treatment (doses as in chronic treatment; terbutalin 0.5 mg/kg), 3 to 6 days of cotreatment; for Effect of ICI 118,551 on the therapeutic effect of chronic agonist treatment on neuropathic allodynia, summary statement: chronic treatment with the agonist plus beta2-adrenoreceptor antagonist ICI 118,551
Procedure: as §2
For the tests, in the examples which follow, the pressure is exerted on the foot of the mice by means of von Frey filaments (Bioseb, Chaville, France) (Benbouzid, M. et al. Biological Psychiatry 63:633-636 (2008) (10) and Benbouzid, M. et al. European Journal of Pain 12:591-599 (2008) (11)). The mice are placed in transparent Plexiglas (registered trademark) boxes (7 cm×9 cm×7 cm) placed on a raised grid. Before the test, the mice are allowed to become accustomed to this device for 15 minutes. During the test, the von Frey filaments are applied to the plantar surface of each back foot according to ascending forces (from 0.16 g up to a foot withdrawal response, or up to a maximum of 10 g). Each filament is tested 5 times per foot and the threshold is defined by the presence of 3 or more withdrawals observed over the 5 tests. Before the surgery as described above, the animals were pretested in order to establish their baseline nociceptive response. During the chronic treatment experiments and those of repeated injection of antagonists, the tests are carried out in the mornings before the first injection of the day. During the acute agonist injection experiments, the tests are carried out after the first injection according to the time course as presented on the graphs.
The procedure for intrathecal (i.t.) injection of the beta2-adrenoreceptor antagonist ICI 118,551 (3 μg in 10 μl) is carried out under halothane gas anesthesia according to the protocol described by Inoue et al. (Nature Medicine 2004, 10:712-718 (12)). These i.t. injections are carried out just before the intraperitoneal injection of salbutamol (2 mg/kg, i.p.). A 27-gauge injection needle connected to a 50 μl Hamilton syringe is inserted, between the L5 and L6 vertebrae, into the subarachnoid space. The correct placement of the needle is verified by the presence of a reflex movement of the tail of the mouse. The mice are pretested before this cotreatment procedure, and then cotreated twice (a morning and the corresponding evening) before being retested the following morning for their mechanical nociceptive sensitivity.

[5] = 5 mg/kg, injection twice a day (morning and evening), chronic
[6] = 0.5 mg/kg, injection twice a day, chronic

Structure (SMILES) | Sensitivity of control (Sham) animals under chronic treatment, recapitulation (FIG. 26) [3] | Nociceptive sensitivity of control (Sham) mice under chronic treatment [3] | Allodynia in neuropathic (Cuff) animals after chronic treatment, recapitulation (FIG. 25) [2] | Effect on neuropathic allodynia acutely after the first injection, summary statement [2] | Effect of coadministered beta2-adrenoreceptor antagonist ICI 118,551 on the allodynia of agonist-treated Cuff mice [4] | Effect of ICI 118,551 on the therapeutic effect of chronic agonist treatment on neuropathic allodynia, summary statement [4] | Mechanical allodynia in neuropathic (Cuff) mice after chronic treatment [2, 6] | further results
CN(C)CCC=C1c2ccccc2CCc2ccccc21 [amitriptylin] | – | – | – | – | – | – | – | Sensitivity of the neuropathic mouse model to chronic treatment with a tricyclic antidepressant [1]: sensitive to chronic treatment
CNCCC=C1c2ccccc2CCc2ccccc21 [nortriptylin] | does not impair the sensitivity of control animals | not affected | – | – | – | – | – | Mechanical allodynia in neuropathic (Cuff) mice after chronic treatment [2, 5]: ineffective initially, but subsequently causes the allodynia to completely disappear; Sensitivity of control (Sham) animals, dose-response recapitulation (FIG. 21) [3]: does not impair the sensitivity of control animals; Sensitivity of the neuropathic mouse model to chronic treatment with a tricyclic antidepressant [1]: sensitive to chronic treatment
OCc1cc(C(O)CNCCCCCCOCCCCc2ccccc2)ccc1O (stereo not shown) [salmeterol] | do not affect the control animals; also recorded: does not aspecifically affect the sensitivity of the control animals | not affected | relieve this allodynia; also recorded: causes the neuropathic pain, for example the neuropathic allodynia, to completely disappear | not observed acutely after the first injection | causes the allodynia to reappear | blocks the therapeutic effect | – | Mechanical allodynia in neuropathic (Cuff) mice after chronic treatment ([2]; 1 mg/kg, injection twice a day, chronic): completely suppresses the mechanical allodynia; Mechanical allodynia of Cuff mice after the first (acute) injection ([2]; 1 mg/kg, intraperitoneal): has no effect on the mechanical allodynia; Mechanical allodynia in neuropathic (Cuff) mice after chronic treatment by inhalation ([2]; salmeterol xinafoate inhaler (Serevent), twice a day, 50 μg per session for 2 weeks, then inhaler pressed four times per session for 9 days): relieves the mechanical allodynia; also recorded: relieves neuropathic allodynia
CC(C)(C)NCC(O)c1cc(O)cc(O)c1 (stereo not shown) [terbutalin] | do not affect the control animals; also recorded: does not aspecifically affect the sensitivity of the control animals | not affected | relieve this allodynia; also recorded: causes the neuropathic pain, for example the neuropathic allodynia, to completely disappear | not observed acutely after the first injection | causes the allodynia to reappear | blocks the therapeutic effect | completely suppresses the mechanical allodynia | Mechanical allodynia of the right (neuropathic) foot after chronic treatment ([2]; 0.125 mg/kg, injection twice a day, chronic): completely suppress the mechanical allodynia; Mechanical allodynia of the right (neuropathic) foot after chronic treatment ([2]; 0.25 mg/kg, injection twice a day, chronic): completely suppress the mechanical allodynia; Response of the non-neuropathic left foot (foot without surgery) of Cuff mice [2, 6]: without aspecifically affecting the response; Mechanical allodynia in neuropathic (Cuff) mice after chronic treatment [2, 5]: completely suppresses the mechanical allodynia; Mechanical allodynia of Cuff mice after the first (acute) injection ([2]; 5 mg/kg, intraperitoneal): has no effect on the mechanical allodynia; Mechanical allodynia in neuropathic (Cuff) mice after chronic application of a gel to the skin ([2]; 0.1 ml of gel twice a day, 2.5 mg/ml terbutalin hemisulfate in 5% hydroxyethylcellulose gel, from 8 days after surgery): relieves the mechanical allodynia; also recorded: relieves neuropathic allodynia; Mechanical sensitivity of the non-neuropathic left foot of Cuff mice (FIG. 21) ([2]; 0.125, 0.25, 0.5 or 5 mg/kg twice a day, chronic (3 weeks)): without affecting the mechanical sensitivity; Allodynia of the neuropathic right foot, dose-response recapitulation (FIG. 21) ([2]; 0.125, 0.25, 0.5 or 5 mg/kg twice a day, chronic (3 weeks), averaged over third week): suppresses the allodynia; Mechanical allodynia in neuropathic (Cuff) mice with subcutaneous implant (continuous delivery) ([2]; silicone tube implant containing 10 mg terbutalin hemisulfate, inserted 14 days after surgery): relieves the mechanical allodynia; also recorded: relieves neuropathic allodynia; Sensitivity of control (Sham) animals, dose-response recapitulation (FIG. 21) [3]: do not affect
CN(C)C(=O)Oc1cc(OC(=O)N(C)C)cc(C(O)CNC(C)(C)C)c1 (stereo not shown) [bambuterol] | do not affect the control animals; also recorded: does not aspecifically affect the sensitivity of the control animals | not affected | relieve this allodynia; also recorded: causes the neuropathic pain, for example the neuropathic allodynia, to completely disappear | not observed acutely after the first injection | causes the allodynia to reappear | blocks the therapeutic effect | completely suppresses the mechanical allodynia | Mechanical allodynia of Cuff mice after the first (acute) injection ([2]; 0.5 mg/kg, intraperitoneal): has no anti-allodynia effect; Control (Sham) mice after the first administration ([3]; bambuterol 0.5 mg/kg): unaffected
CC(C)NCC(O)c1ccc(O)c(O)c1 (racemic) [isoprenalin, DL-isoproterenol chloride] | do not affect the control animals; also recorded: does not aspecifically affect the sensitivity of the control animals | – | relieve this allodynia; also recorded: causes the neuropathic pain, for example the neuropathic allodynia, to completely disappear | – | causes the allodynia to reappear | blocks the therapeutic effect | completely suppresses the mechanical allodynia | –
CC(C)(C)NCC(O)c1cc(Cl)c(N)c(Cl)c1 (stereo not shown) [clenbuterol] | do not affect the control animals; also recorded: does not aspecifically affect the sensitivity of the control animals | not affected | relieve this allodynia; also recorded: causes the neuropathic pain, for example the neuropathic allodynia, to completely disappear | not observed acutely after the first injection | causes the allodynia to reappear | blocks the therapeutic effect | – | Mechanical allodynia of Cuff mice after the first (acute) injection ([2]; 0.3 mg/kg, intraperitoneal): has no effect on the mechanical allodynia; Mechanical allodynia in neuropathic (Cuff) mice after chronic treatment ([2]; 0.3 mg/kg, intraperitoneal, twice a day, chronic): completely suppresses the mechanical allodynia; Control (Sham) mice after the first administration ([3]; clenbuterol 0.3 mg/kg): unaffected
